Assay results as given in US9624247B2, “Pyrazolo-pyrrolidin-4-one derivatives as bet inhibitors and their use in the treatment of disease” (NOVARTIS AG, priority 2013, dated 2017).

Assays:
BRD2 (His-Brd2(60-472)) = BRD2 (His-Brd2(60-472)) (Homo sapiens (Human), UniProt P25440); experiment: TR-FRET in-vitro binding assay for BRD2; conditions: acetyl-histone H4 peptide
THP-1 cells = experiment: Cell growth inhibition assay (CellTiter-Glo), THP-1; type: cell-based, human; conditions: THP-1, 4 days; for GI50: Homo sapiens, 96 h, half-maximal growth inhibition; for THP-1 TGI: total growth inhibition
In short: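 Leukemia cells were exposed for 4 days at 37 °C to 3-fold dilution series from 10 μM (0.1% DMSO), then viable cells were quantified by CellTiter-Glo ATP luminescence. Signal was corrected for background and a day-0 plate, with vehicle set at 100% and medium-only at −100%. IC50 and TGI were obtained by four-parameter fit.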

Chain of BRD2 (His-Brd2(60-472)) (P25440 60-472): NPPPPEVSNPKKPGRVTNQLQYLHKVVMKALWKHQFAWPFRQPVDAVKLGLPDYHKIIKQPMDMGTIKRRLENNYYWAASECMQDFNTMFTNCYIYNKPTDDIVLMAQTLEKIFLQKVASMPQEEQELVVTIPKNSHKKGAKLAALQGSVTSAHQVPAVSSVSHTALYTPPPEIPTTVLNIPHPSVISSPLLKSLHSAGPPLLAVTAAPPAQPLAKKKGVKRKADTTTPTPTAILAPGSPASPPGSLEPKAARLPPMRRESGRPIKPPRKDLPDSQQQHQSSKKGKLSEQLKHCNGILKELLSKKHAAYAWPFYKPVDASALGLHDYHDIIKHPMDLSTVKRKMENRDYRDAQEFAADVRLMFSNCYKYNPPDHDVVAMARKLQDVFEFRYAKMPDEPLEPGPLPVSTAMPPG

Question: What does the source list for Cc1cc(N2C(=O)c3c(C4CC4)nn(C)c3C2c2ccc(Cl)cc2)cn2c(C(F)F)nnc12 (racemic) [Example 3, 6-(4-chlorophenyl)-3-cyclopropyl-5-(3-(difluoromethyl)-8-methyl-[1,2,4]triazolo[4,3-a]pyridin-6-yl)-1-methyl-5,6-dihydropyrrolo[3,4-c]pyrazol-4(1H)-one]?
Answer: IC50 (BRD2 (His-Brd2(60-472))): 13 nM; GI50 (THP-1 cells): 12.4 nM; THP-1 TGI (THP-1 cells): 29.45 nM

Question: Which results are given for COCCn1nc(C2CC2)c2c1C(c1ccc(Cl)cc1)N(c1cc(C)c3nnc(C)n3c1)C2=O (racemic) [Example 4, 6-(4-chlorophenyl)-3-cyclopropyl-5-(3,8-dimethyl-[1,2,4]triazolo[4,3-a]pyridin-6-yl)-1-(2-methoxyethyl)-5,6-dihydropyrrolo[3,4-c]pyrazol-4(1H)-one]?
Answer: IC50 (BRD2 (His-Brd2(60-472))): 17 nM; GI50 (THP-1 cells): 11.9 nM; THP-1 TGI (THP-1 cells): 27.95 nM

Question: Which IC50 (BRD2 (His-Brd2(60-472))) does the source give for COc1cc(N2C(=O)c3c(C4CC4)nn(C)c3C2c2ccc(Cl)cc2)cn2c(C)nnc12 (racemic) [Example 5, 6-(4-chlorophenyl)-3-cyclopropyl-5-(8-methoxy-3-methyl-[1,2,4]triazolo[4,3-a]pyridin-6-yl)-1-methyl-5,6-dihydropyrrolo[3,4-c]pyrazol-4(1H)-one] here?
Answer: 54 nM

Question: What about the GI50 (THP-1 cells) of the same compound?
Answer: 81.4 nM

Question: What about the “THP-1 TGI” value (THP-1 cells) of the same compound?
Answer: 147.5 nM

Question: Which IC50 (BRD2 (His-Brd2(60-472))) does the source give for Cc1cc(N2C(=O)c3c(C4CC4)nn(C)c3C2c2ccc(Cl)cc2)cn2c(CF)nnc12 (racemic) [Example 16, 6-(4-chlorophenyl)-3-cyclopropyl-5-(3-(fluoromethyl)-8-methyl-[1,2,4]triazolo[4,3-a]-pyridin-6-yl)-1-methyl-5,6-dihydropyrrolo[3,4-c]pyrazol-4(1H)-one] here?
Answer: 16 nM

Question: What about the GI50 (THP-1 cells) of the same compound?
Answer: 18.7 nM

Question: And the “THP-1 TGI” value (THP-1 cells)?
Answer: 51.6 nM

Question: What does the source list for Cc1cc(N2C(=O)c3c(C4CC4)nn(C)c3C2c2ccc(Cl)cc2)cn2c(C)nnc12 (stereo not drawn) [Example 1, 6-(4-chlorophenyl)-3-cyclopropyl-5-(3,8-dimethyl-[1,2,4]triazolo[4,3-a]pyridin-6-yl)-1-methyl-5,6-dihydropyrrolo[3,4-c]pyrazol-4(1H)-one]?
Answer: IC50 (BRD2 (His-Brd2(60-472))): 29 nM; GI50 (THP-1 cells): 9.6 nM; THP-1 TGI (THP-1 cells): 20.4 nM

Question: With Cc1cc(N2C(=O)c3c(C4CC4)nn(C)c3[C@H]2c2ccc(Cl)cc2)cn2c(C)nnc12 [Example 2, (R)-6-(4-chlorophenyl)-3-cyclopropyl-5-(3,8-dimethyl-[1,2,4]triazolo[4,3-a]pyridin-6-yl)-1-methyl-5,6-dihydropyrrolo[3,4-c]pyrazol-4(1H)-one] as the compound, how does the IC50 (BRD2 (His-Brd2(60-472))) read?
Answer: 11 nM

Question: What about the GI50 (THP-1 cells) of the same compound?
Answer: 6.37 nM

Question: What about the “THP-1 TGI” value (THP-1 cells) of the same compound?
Answer: 14.95 nM

Question: For COc1cc(N2C(=O)c3c(C4CC4)nn(C)c3C2c2ccc(Cl)cc2)cc2c1nnn2C (stereo not drawn) [Example 6], which IC50 (BRD2 (His-Brd2(60-472))) is on record?
Answer: 38 nM

Question: And the GI50 (THP-1 cells)?
Answer: 63 nM

Question: And the “THP-1 TGI” value (THP-1 cells)?
Answer: 118.1 nM

Question: With Cc1cc(N2C(=O)c3c(C4CC4)nn(C)c3[C@H]2c2ccc(Cl)cc2)cn2c(C(F)F)nnc12 [Example 7, (R)-6-(4-chlorophenyl)-3-cyclopropyl-5-(3-(difluoromethyl)-8-methyl-[1,2,4]triazolo-[4,3-a]pyridin-6-yl)-1-methyl-5,6-dihydropyrrolo[3,4-c]pyrazol-4(1H)-one] as the compound, how does the IC50 (BRD2 (His-Brd2(60-472))) read?
Answer: 13 nM

Question: And the GI50 (THP-1 cells)?
Answer: 5.65 nM

Question: And the “THP-1 TGI” value (THP-1 cells)?
Answer: 14.8 nM

Question: What does the source list for COCCn1nc(C2CC2)c2c1C(c1ccc(Cl)cc1)N(c1cc(C)c3nnc(CF)n3c1)C2=O (stereo not drawn) [Example 18, 6-(4-chlorophenyl)-3-cyclopropyl-5-(3-(fluoromethyl)-8-methyl-[1,2,4]triazolo[4,3-a]-pyridin-6-yl)-1-(2-methoxyethyl)-5,6-dihydropyrrolo[3,4-c]pyrazol-4(1H)-one]?
Answer: IC50 (BRD2 (His-Brd2(60-472))): 33 nM; GI50 (THP-1 cells): 19.2 nM; THP-1 TGI (THP-1 cells): 46.45 nM

Question: What does the source list for Cc1nnc2c(NC(=O)OC(C)(C)C)cc(N3C(=O)c4c(C5CC5)nn(C)c4C3c3ccc(Cl)cc3)cn12 (stereo not drawn) [Example 27, tert-butyl (6-(6-(4-chlorophenyl)-3-cyclopropyl-1-methyl-4-oxopyrrolo[3,4-c]pyrazol-5(1H,4H,6H)-yl)-3-methyl-[1,2,4]triazolo[4,3-a]pyridin-8-yl)carbamate]?
Answer: IC50 (BRD2 (His-Brd2(60-472))): 47 nM; GI50 (THP-1 cells): 22.8 nM; THP-1 TGI (THP-1 cells): 44.65 nM

Question: With CCOC(=O)Nc1cc(N2C(=O)c3c(C4CC4)nn(C)c3C2c2ccc(Cl)cc2)cn2c(C)nnc12 (stereo not drawn) [Example 29, ethyl (6-(6-(4-chlorophenyl)-3-cyclopropyl-1-methyl-4-oxopyrrolo[3,4-c]pyrazol-5-(1H,4H,6H)-yl)-3-methyl-[1,2,4]triazolo[4,3-a]pyridin-8-yl)carbamate] as the compound, how does the IC50 (BRD2 (His-Brd2(60-472))) read?
Answer: 23 nM

Question: And the GI50 (THP-1 cells)?
Answer: 2.59 nM

Question: What about the “THP-1 TGI” value (THP-1 cells) of the same compound?
Answer: 7.62 nM
